Test results as given in patent US10363251B2, “(+)-morphinans as antagonists of toll-like receptor 9 and therapeutic uses thereof” (Mallinckrodt LLC, priority 2009, dated 2019).
Where two headings read alike, the source gives them in different places.

Target: T1, TLR9 (Homo sapiens, UniProt Q9NR96)
T1 construct: expressed in transfected cells; host or cells: HEK293
T1 sequence (Q9NR96 26-1032): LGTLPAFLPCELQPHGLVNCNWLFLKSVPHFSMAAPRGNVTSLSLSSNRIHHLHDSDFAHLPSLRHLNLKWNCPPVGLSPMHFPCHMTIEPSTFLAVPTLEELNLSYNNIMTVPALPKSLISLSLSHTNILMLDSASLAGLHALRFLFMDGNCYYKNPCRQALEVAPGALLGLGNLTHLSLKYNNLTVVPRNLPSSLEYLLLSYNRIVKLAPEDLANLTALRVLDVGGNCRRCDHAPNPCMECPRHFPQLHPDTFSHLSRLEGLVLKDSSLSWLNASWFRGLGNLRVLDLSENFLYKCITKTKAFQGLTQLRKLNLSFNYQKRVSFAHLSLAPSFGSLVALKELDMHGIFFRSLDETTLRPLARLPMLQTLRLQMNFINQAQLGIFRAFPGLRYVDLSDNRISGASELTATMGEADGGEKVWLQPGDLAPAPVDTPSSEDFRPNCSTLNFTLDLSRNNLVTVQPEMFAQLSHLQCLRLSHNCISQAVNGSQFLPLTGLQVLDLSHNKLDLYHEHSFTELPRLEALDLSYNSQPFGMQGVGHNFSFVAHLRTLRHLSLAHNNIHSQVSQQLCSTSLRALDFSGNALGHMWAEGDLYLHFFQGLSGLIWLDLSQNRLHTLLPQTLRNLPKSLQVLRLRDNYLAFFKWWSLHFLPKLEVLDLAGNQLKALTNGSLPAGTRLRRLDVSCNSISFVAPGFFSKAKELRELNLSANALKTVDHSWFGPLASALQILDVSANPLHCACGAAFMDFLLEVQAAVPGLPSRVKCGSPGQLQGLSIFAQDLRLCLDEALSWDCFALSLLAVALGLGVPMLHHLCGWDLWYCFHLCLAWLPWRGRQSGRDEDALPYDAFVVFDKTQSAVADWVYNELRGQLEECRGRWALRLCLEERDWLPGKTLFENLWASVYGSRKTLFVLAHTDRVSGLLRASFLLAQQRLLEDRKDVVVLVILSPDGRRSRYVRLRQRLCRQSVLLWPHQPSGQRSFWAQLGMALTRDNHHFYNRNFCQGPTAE
Experiment: TLR9 screening of (+)-morphinan library, SEAP reporter in HEK293 cells expressing TLR9
Assay type: cell-based
Conditions: activator ODN2006; for OD 650 nm (mean ± sd): control (no activator) 0.14, activator 1.42 OD
Protocol: The secreted alkaline phosphatase reporter is under the control of a promoter inducible by the transcription factor NF-κB. A library of more than 100 (+)-morphinan compounds was screened for TLR9 antagonist activity by assessing NF-κB activation in the HEK293 cells expressing TLR9. This reporter gene allows the monitoring of signaling through the TLR, based on the activation of NF-κB.
In a 96-well plate (200 μL total volume) containing 50,000 cells/well, 20 μL of each sample compound was added to wells, in triplicate, followed by a 30 minute incubation at 37° C. and 5% CO2. After the 30 minutes of incubation, 20 μL of the activator ODN2006 was added to each well. The media added to the wells was designed for the detection of NF-κB induced SEAP expression. After a 16-20 hr incubation period, the OD at 650 nm was read on a Beckman Coulter AD 340C Absorbance Detector. All compounds were tested at concentrations of 10 μM and 100 nM.

[1] = HEK293, read-out: % Inhibition (mean), 100 nM
[2] = HEK293, read-out: % Inhibition (mean), 10 μM
[3] = HEK293, 100 nM, read-out: % Inhibition (mean)
[4] = HEK293, 10 μM, read-out: % Inhibition (mean)

| Structure (SMILES) | OD 650 nm (mean ± sd) (100 nM) | OD 650 nm (mean ± sd) (10 μM) | inhibition at 0.1 µM [1] | inhibition at 10 µM [2] | inhibition at 0.1 µM [3] | inhibition at 10 µM [4] |
| --- | --- | --- | --- | --- | --- | --- |
| C=CCN1CC[C@@]23c4c5ccc(OC)c4O[C@@H]2C(NC(C)=O)CC[C@@H]3[C@@H]1C5 (stereo partly drawn) [II-20] | 1.29 ± 0.02 OD | 1.07 ± 0.04 OD | 9% | 25% | – | – |
| COc1ccc2c(c1O)[C@@]13CCN(C)[C@@H](C2)[C@@]1(O)CC(OC)C(=O)C3 (stereo partly drawn) [Compound I-9] | 1.50 ± 0.10 OD | 1.03 ± 0.01 OD | -6% | 28% | – | – |
| COc1ccc2c(c1O)[C@@]13CCN(C)[C@@H](C2)[C@H]1CC(OC)C(O)C3 (stereo partly drawn) [Compound I-10] | 1.32 ± 0.04 OD | 1.04 ± 0.08 OD | 7% | 27% | – | – |
| COC1=C[C@]2(O)[C@@H]3Cc4ccc(OC)c(O)c4[C@]2(CCN3C)CC1=O [Compound I-30] | 1.25 ± 0.11 OD | 0.94 ± 0.05 OD | 12% | 33% | – | – |
| C=CCN1CC[C@@]23c4c5ccc(OC)c4O[C@@H]2C(=C)CC[C@@H]3[C@@H]1C5 [II-22] | 1.31 ± 0.19 OD | 0.75 ± 0.06 OD | 8% | 47% | – | – |
| COc1ccc2c3c1OC1C(O)CC[C@@H]4[C@H](C2)N(C)CC[C@@]314 (stereo partly drawn) [II-7] | 1.32 ± 0.08 OD | 0.13 ± 0.02 OD | 7% | 91% | – | – |
| COC1=CC=C2[C@@H]3Cc4ccc(OC)c5c4[C@]2(CCN3C)[C@@H]1O5 [II-34] | 1.39 ± 0.05 OD | 0.94 ± 0.08 OD | 2% | 34% | – | – |
| C=CCN1CC[C@@]23c4c5c(-c6ccoc6)cc(OC)c4O[C@@H]2C(=O)CCC3C1C5 (stereo partly drawn) [II-2] | 1.23 ± 0.05 OD | 0.12 ± 0.01 OD | 13% | 92% | – | – |
| C=CCN1CC[C@@]23c4c5ccc(O)c4O[C@@H]2C(=O)CC[C@]3(O)[C@@H]1C5 [II-64] | 1.31 ± 0.14 OD | 0.98 ± 0.01 OD | 8% | 31% | – | – |
| COc1ccc2c3c1O[C@@H]1C(O)CC[C@]4(O)[C@H](C2)N(CC2CCC2)CC[C@@]314 (stereo partly drawn) [II-55] | 1.46 ± 0.08 OD | 1.17 ± 0.08 OD | -3% | 18% | – | – |
| COC(=O)CCc1cc(OC)c(O)c2c1CC1C3CCC(=O)C[C@@]23CCN1CC1CC1 (stereo partly drawn) [Compound I-4] | 1.17 ± 0.06 OD | 0.46 ± 0.05 OD | 18% | 68% | – | – |
| COC1=CC=C2[C@@H]3Cc4c(Br)cc(OCc5ccccc5)c5c4[C@]2(CCN3CC2CC2)[C@@H]1O5 [II-86] | 1.15 ± 0.11 OD | 0.13 ± 0.03 OD | 19% | 91% | – | – |
| O=C1CC[C@@H]2[C@@H]3Cc4ccc(OCc5ccccc5)c5c4[C@]2(CCN3CC2CC2)[C@@H]1O5 [II-88] | 1.12 ± 0.15 OD | 0.13 ± 0.01 OD | 21% | 91% | – | – |
| C=CCN1CC[C@@]23CC(=O)CCC2C1Cc1ccc(OC)c(O)c13 (stereo partly drawn) [Compound I-7] | 1.14 ± 0.03 OD | 0.16 ± 0.01 OD | 20% | 89% | – | – |
| COc1ccc2c3c1O[C@@H]1C(=O)CC[C@]4(O)[C@H](C2)N(C(C)=O)CC[C@@]314 [II-84] | 1.44 ± 0.06 OD | 1.51 ± 0.08 OD | -1% | -6% | – | – |
| COc1ccc2c3c1OC1C(OC(C)=O)CCC4C(C2)N(C)CC[C@]341 (stereo partly drawn) [II-8] | 1.15 ± 0.07 OD | 1.33 ± 0.06 OD | 19% | 7% | – | – |
| C=CCN1CC[C@@]23CC(=O)CCC2C1Cc1c(-c2ccoc2)cc(OC)c(O)c13 (stereo partly drawn) [Compound I-3] | 1.12 ± 0.01 OD | 0.11 ± 0.00 OD | 21% | 92% | – | – |
| COc1cc(-c2ccoc2)c2c(c1O)[C@@]13CCN(CC4CC4)C(C2)C1CCC(=O)C3 (stereo partly drawn) [Compound I-13] | 1.34 ± 0.12 OD | 0.13 ± 0.01 OD | 6% | 91% | – | – |
| C=C(C)c1cc(OC)c(O)c2c1CC1C3CCC(=O)C[C@@]23CCN1CC1CC1 (stereo partly drawn) [Compound I-27] | 1.13 ± 0.04 OD | 0.10 ± 0.00 OD | 20% | 93% | – | – |
| COc1ccc2c(c1)CCN(CC1CCC1)[C@@H]2Cc1ccc(OC)c(O)c1 [III-4] | 1.04 ± 0.04 OD | 0.11 ± 0.01 OD | – | – | 27% | 92% |
| COC1=C[C@@H]2[C@@H]3Cc4ccc(OC)c(O)c4[C@]2(CCN3C)CC1O (stereo partly drawn) [Compound I-28] | 1.24 ± 0.02 OD | 0.12 ± 0.01 OD | 13% | 91% | – | – |
| COc1cc(C(C)C)c2c3c1O[C@@H]1C(=O)CCC4C(C2)N(CC2CC2)CC[C@]341 (stereo partly drawn) [II-4] | 1.18 ± 0.06 OD | 0.11 ± 0.01 OD | 17% | 92% | – | – |
| COc1ccc2c(c1)CCN(C)[C@@H]2Cc1ccc(OC)c(O)c1 [III-5] | 1.11 ± 0.02 OD | 0.29 ± 0.01 OD | – | – | 22% | 80% |
| COc1ccc2c3c1O[C@@H]1C(NCCO)CC[C@@H]4[C@H](C2)N(C)CC[C@@]314 (stereo partly drawn) [II-10] | 0.24 ± 0.02 OD | 0.10 ± 0.01 OD | 83% | 93% | – | – |
| COc1ccc2c3c1O[C@@H]1C(OC)(OC)C(Br)CC4[C@H](C2)N(C)CC[C@]341 (stereo partly drawn) [II-101] | 1.35 ± 0.06 OD | 0.94 ± 0.02 OD | 5% | 34% | – | – |
| COC(=O)[C@@H](C)NC1CCC2C3Cc4ccc(OC)c5c4[C@]2(CCN3C)C1O5 (stereo partly drawn) [II-92] | 1.09 ± 0.03 OD | 0.73 ± 0.06 OD | 23% | 48% | – | – |
| C=CCN1CC[C@@]23c4c5ccc(OC)c4O[C@@H]2C2(CC[C@@H]3[C@@H]1C5)OCCO2 [II-89] | 1.53 ± 0.10 OD | 1.08 ± 0.02 OD | -8% | 24% | – | – |
| C=CCN1CC[C@@]23CC(=O)C(OC)C[C@@H]2[C@@H]1Cc1ccc(OC)c(O)c13 (stereo partly drawn) [Compound I-16] | 1.50 ± 0.01 OD | 0.91 ± 0.04 OD | -5% | 36% | – | – |
| COc1cc(Br)c2c(c1O)[C@@]13CCN(CC4CCC4)C(C2)C1CCC(=O)C3 (stereo partly drawn) [Compound I-8] | 1.13 ± 0.07 OD | 0.11 ± 0.01 OD | 20% | 92% | – | – |
| COc1ccc2c3c1O[C@@H]1[C@@H]4CCC5(O4)[C@H](C2)N(C)CC[C@@]315 [II-46] | 1.24 ± 0.02 OD | 1.30 ± 0.02 OD | 13% | 8% | – | – |
